The values that follow come from ChEMBL document CHEMBL3045958, “The design and synthesis of inhibitors of adenosine 5'-monophosphate deaminase” (Bioorg Med Chem Lett, 1999).

Assay [1] has as its target T1, AMP deaminase 1 (Oryctolagus cuniculus, UniProt P81072).
T1 sequence (P81072 whole entry): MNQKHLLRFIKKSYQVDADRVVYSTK
In words: Inhibition of Oryctolagus cuniculus (rabbit) muscle adenylate deaminase. Set-up: species or system Muscle tissue.

Assay [2] in a line: Inhibition of adenylate deaminase.
Assay [3] deals with Pisum sativum. The experiment in a line: Increase in ATP levels in Pisum sativum (pea) seedlings at 100 uM measured per gram of frozen weight after 4 hr by luciferase based assay (reference value: 253 to 267 nmol/g of frozen weight). In kind it is functional, Lathyrus oleraceus.
Assay [4] deals with Pisum sativum. The experiment in a line: Increase in ATP levels in Pisum sativum (pea) seedlings at 100 uM measured per gram of frozen weight after 24 hr by luciferase based assay (reference value: 213 to 226 nmol/g of frozen weight). In kind it is functional, Lathyrus oleraceus.
The target in assay [5] is T2, Adenosine deaminase (Bos taurus, UniProt P56658).
T2 sequence (P56658 whole entry): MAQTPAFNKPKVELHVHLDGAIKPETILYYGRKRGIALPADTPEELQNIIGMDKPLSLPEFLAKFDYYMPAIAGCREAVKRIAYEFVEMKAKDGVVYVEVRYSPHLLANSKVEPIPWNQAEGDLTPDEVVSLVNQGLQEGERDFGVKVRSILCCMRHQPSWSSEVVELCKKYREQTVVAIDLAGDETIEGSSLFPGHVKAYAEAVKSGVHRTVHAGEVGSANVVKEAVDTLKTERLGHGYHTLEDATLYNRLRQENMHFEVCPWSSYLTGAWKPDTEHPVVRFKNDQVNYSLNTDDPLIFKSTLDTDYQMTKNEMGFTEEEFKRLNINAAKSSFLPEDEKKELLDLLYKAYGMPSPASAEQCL
In words: Inhibition of Bos taurus (calf) […].

The structures appear in SMILES notation. The source made the active and inactive calls. The rule behind the calls is not given here.

What is called IC50 is the point on the concentration scale where inhibition reaches its midpoint. Lower therefore signals inhibition by little substance. Take `O=P(O)(O)OC[C@H]1O[C@@H](c2n[nH]c3cncnc23)[C@H](O)[C@@H]1O`: the IC50 in assay [1] came out at 0.07 µM.
As to `OC[C@H]1C[C@@H](n2cnc3cncnc32)[C@H](O)[C@@H]1O`, the inhibition result in assay [2] was “inactive”.
Turning to `OC[C@H]1O[C@@H](c2n[nH]c3cncnc23)[C@H](O)[C@@H]1O` [DEAMINOFORMYCIN], the Activity is recorded as 423 nmol in assay [3] and 693 nmol in assay [4]. Besides, in assay [2], the inhibition entry is “inactive”. This molecule yielded an IC50 in assay [5] of 5 µM.
Broadly, the Ki is the dissociation constant of the complex between target and ligand, obtained from inhibition or displacement. A high value points to weaker binding. Molecule `O=P(O)(O)OC[C@H]1O[C@@H](n2cnc3cncnc32)[C@H](O)[C@@H]1O` showed a Ki in assay [1] of 6.5 µM.
For `O=P(O)(O)OC[C@H]1C[C@@H](n2cnc3cncnc32)[C@H](O)[C@@H]1O`, the inhibition result in assay [2] is “inactive”.
